Measurements reported in US20260053767A1, “Hepatoprotective Compositions And Methods” (Jemyll, Ltd., priority 2022, published 2026).

Legend:
Wistar rats [1] = assay: Glucose challenge test and body weight in rats on high fat/high cholesterol diet, water with DDA at 1% of caloric intake; format: in vivo
From the text: Animal Studies. All in vivo studies used Wistar rats that were kept for 9 weeks on a high fat/high cholesterol diet. The animals were then separated into two groups, a control group that continued the high fat/high cholesterol diet with regular water, whereas the treatment group continued the high fat/high cholesterol diet with water containing DDA (dodecanedioic acid) in an amount of 1% of the caloric intake. After all animals were separated in the respective test groups, body weights were recorded, and a glucose challenge test administered. […] Such effect is particularly unexpected as the quantity of DDA in the food was well below any quantity that was reasonably expected.

Wistar rats [2] = assay: Study 2 (reversal): liver histology (H&E, Oil Red O, Sirius Red); format: in vivo; conditions: Study 2: 9 weeks diet, then 4 weeks treatment
Experimental: Study design: All animal procedures were approved by the Catholic University of Rome Institutional Animal Care Committee. The design of the studies is summarized in FIG. 18, Panels A and B. • Study 1: Twenty adult Wistar rats, aged 8-10 weeks, were included in the study. The rats were housed in individual cages at 22° C. with 12-h light cycles and had ad libitum access to food and water. Rats were fed a high-fat high-cholesterol diet (44% Carbohydrate, 14% Protein, 42% fat+0.2% Cholesterol) (Mucedola, Milan, IT) for four weeks in the presence or absence of 1% Dodecanedioic acid, sodium salt (w/vol) dissolved in the water (FIG. 18, Panel A). Body weight and food/water intake were monitored weekly. • Study 2: Twenty adult Wistar rats, aged 8-10 weeks, were included in the study. The rats were housed in individual cages at 22° C. with 12-h light cycles and had ad libitum access to food and water. Rats were fed a high-fat high-cholesterol diet (44% Carbohydrate, 14% Protein, 42% fat+0.2% Cholesterol) (Mucedola, Milan, IT). After nine weeks of diet, rats were randomly assigned to one of the following groups: Four weeks of high-fat high-cholesterol diet or four weeks of high-fat high-cholesterol diet and 1% Dodecanedioic acid, sodium salt (w/v) dissolved in the water FIG. 18, Panel B). Body weight and food/water intake were monitored weekly.
Histology: The day of the sacrifice fresh portions of liver were cut, embedded in cryo-embedding media (OCT) and snap frozen in liquid nitrogen. Biopsies were cut using a cryostat (5 μm) and slides stored a −20° C. until analyses.
Hematoxylin and Eosin staining was performed to assess hepatic steatosis. Slides were fixed 10 minutes with 95% ethanol, stained with hematoxylin for 1 minute, washed with distilled water, stained with eosin for 30 seconds and cleared in two changes of pure ethanol and two changes of xylene.
Oil Red O was performed to assess intracellular lipid accumulation. Slides were fixed overnight with 4% formalin, stained with Oil Red O solution for 1 hour. Counterstain was performed with Hematoxylin solution.
Sirius Red was used to identify hepatic fibrosis. Slides were fixed 10 minutes with 4% formalin, stained in Direct red 80 for 1 hour, washed in acidified water and dehydrate in 3 changes of absolute ethanol. After brief clearing in xylene, the slides were mounted in a resinous medium. Images were taken with an optical microscope (Leica DM2000, Wetzlar, DE). […]
Panels A and B. • Study 1: Twenty adult Wistar rats, aged 8-10 weeks, were included in the study. […] Body weight and food/water intake were monitored weekly. • Study 2: Twenty adult Wistar rats, aged 8-10 weeks, were included in the study. […] Body weight and food/water intake were monitored weekly. […]

SMILES: O=C(O)CCCCCCCCCCC(=O)O [DDDA, dodecanedioic acid]
- AUC blood glucose in glucose challenge (Wistar rats [1]): significantly reduced
- blood glucose spike in glucose challenge (Wistar rats [1]): significantly blunted
- diet-induced NASH (histology, reversal) (Wistar rats [2]): reverses diet-induced insulin NASH
- fibrosis (Picro Sirius Red) (Wistar rats [2]): decreasing
- hepatic steatosis (Hematoxylin and Eosin) (Wistar rats [2]): decreasing
- neutral lipids (Oil Red O) (Wistar rats [2]): decreasing
